Assays:
[1] = Flux through human skin from articles of FIG. 4 (Example V); conditions: reservoir 5% drug
[2] = even at higher clonidine concentrations
[3] = cited from earlier work
[4] = Release of timolol from polymeric reservoir with and without ethylene-methyl acrylate membranes (Example IV); format: physicochemical
Source text: FIG. 11 is a graph of timolol release versus time (time versus accumulation) from an ADMEX® 760 reservoir without the use of a control membrane as set forth in Example IV. The graph indicated by reference numeral 111 is the graph of mg/cm^2 of timolol release versus hours. The basis of this graph is more specifically set forth in Example IV.
FIG. 13 is a series of graphs (time versus flux) of timolol release rate through control membranes consisting of copolymers of ethylene and methyl acrylate; 5% and 7% with 1.25 mils thickness and 2.5 mils thickness as more specifically set forth in Example IV. The graph indicated by reference numeral 130 is the graph for a membrane having 7% methyl acrylate repeating monomeric units and a membrane of thickness 1.25 mils. The graph indicated by reference numeral 131 is the graph for use of a membrane containing 5% methyl acrylate repeating monomeric units with a thickness of 1.25 mils. The graph indicated by reference numeral 132 is the graph for the use of a membrane containing 7% methyl acrylate repeating monomeric units and having a thickness of 2.5 mils. The graph indicated by reference numeral 133 is the graph for a membrane containing 5% methyl acrylate repeating monomeric units and having a thickness of 2.5 mils.

[5] = system of European Patent 186,071; cited from earlier work

Compound: CC(C)(C)NCC(O)c1cc(Cl)c(N)c(Cl)c1 (centres unmarked) [CLENBUTEROL]
- Flux Thru Human Skin ([1]; with membrane 1.25 mil EMA (11% MA)): 15.1 ug/cm^2 /day
- Flux Thru Human Skin ([1]; without membrane, 35% PVC resin, 60% ADMEX 760): 34.5 ug/cm^2 /day

Compound: Clc1cccc(Cl)c1NC1=NCCN1 [clonidine]
- effect of copolymeric EMA membranes on drug diffusion rates in the transdermal patch [2]: lower the drug diffusion rates in the transdermal patch even at higher clonidine concentrations
- solubility in mineral oil [3]: approximately 0.5 mg/ml

Compound: CC(C)(C)NC[C@H](O)COc1nsnc1N1CCOCC1 [timolol]
- release of timolol from the reservoir through ethylene-methyl acrylate membranes ([4]; 5% and 7% methyl acrylate, 1.25 and 2.5 mils thickness): Relatively controlled and constant release of the drug was obtained for a period of seven days
- release of timolol from a polymeric reservoir into an aqueous sink ([4]; in the absence of a membrane, ADMEX 760 reservoir): very high and followed typical first order kinetics
- release behavior of timolol from a polymeric reservoir ([4]; use of ethylene methyl acrylate membranes): altered by the use of ethylene methyl acrylate membranes
- irritation to the skin on transdermal application [5]: substantially no irritation to the skin
